According to ChEMBL document CHEMBL1138303, “Putative bioactive conformations of amide linked cyclic myelin basic protein peptide analogues associated with experimental autoimmune encephalomyelitis” (J Med Chem, 2007):
Active and inactive are the calls of the source. No cut-off for these calls is given here. Peptide text beside a SMILES is read from it.

Tests used:
[1] = Solubility per 100 uL of the compound; type: physicochemical
Rattus norvegicus = species on record: Rattus norvegicus; experiment: Inhibition of encephalitogenic MBP(74-85)-induced encephalomyelitis in Lewis rat; type: functional, organism-based

Solubility [1] | Structure (SMILES) | Activity (Rattus norvegicus)
16 mg | CC[C@H](C)[C@@H]1NC(=O)[C@H](CC(N)=O)NC(=O)[C@H](CCCCN)NC(=O)[C@H](Cc2ccccc2)NC(=O)[C@H](Cc2ccccc2)NC(=O)[C@H](Cc2c[nH]cn2)NC(=O)[C@H](C(C)C)NC(=O)[C@@H]2CCCN2C(=O)[C@H]([C@@H](C)O)NC(=O)[C@H](CCCNC(=N)N)NC(=O)[C@@H]2CCCN2C(=O)[C@H]([C@@H](C)O)NC(=O)[C@H](C(C)C)NC1=O | 
1.15 mg | CC[C@H](C)[C@@H]1NC(=O)[C@H](CC(N)=O)NC(=O)[C@H](C)NC(=O)[C@H](Cc2ccccc2)NC(=O)[C@H](Cc2ccccc2)NC(=O)[C@H](Cc2c[nH]cn2)NC(=O)[C@H](C(C)C)NC(=O)[C@@H]2CCCN2C(=O)[C@H]([C@@H](C)O)NC(=O)[C@H](CCCNC(=N)N)NC(=O)[C@H](C)NC(=O)[C@H]([C@@H](C)O)NC(=O)[C@H](C(C)C)NC1=O (HELM PEPTIDE1{A.N.I.V.T.A.R.T.P.V.H.F.F}$PEPTIDE1,PEPTIDE1,1:R1-13:R2$$$V2.0) | Active
16.25 mg | CC[C@H](C)[C@@H]1NC(=O)[C@H](CC(N)=O)NC(=O)[C@H](CCCNC(=N)N)NC(=O)[C@H](Cc2ccccc2)NC(=O)[C@H](Cc2ccccc2)NC(=O)[C@H](Cc2c[nH]cn2)NC(=O)[C@H](C(C)C)NC(=O)[C@@H]2CCCN2C(=O)[C@H]([C@@H](C)O)NC(=O)[C@H](CCCNC(=N)N)NC(=O)[C@H](C)NC(=O)[C@H]([C@@H](C)O)NC(=O)[C@H](C(C)C)NC1=O (HELM PEPTIDE1{A.R.T.P.V.H.F.F.R.N.I.V.T}$PEPTIDE1,PEPTIDE1,1:R1-13:R2$$$V2.0) | Active
